Measurements reported in PubChem BioAssay AID2060904 (Molecular Pharmacology Branch, DTP, NCI, 2025).

Tested on: 349418-098-R-PDC complex spheroid viability
Assay: Anticancer human tumor 349418-098-R-PDC patient-derived lung adenocarcinoma cell line growth inhibition [RAS]
Details: for IC50: curve of first compound; for viability, T/C: stronger effect = lower value
How it was run: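 Multi-cell-type spheroids: tumor cells plus HUVEC endothelial cells and mesenchymal stem cells. RAS-pathway inhibitors were combined with targeted agents, each dosed in half-log steps down from clinical Cmax, or from 10 microM when Cmax was unknown.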

[1] = second compound 0.000949 µM, first compound 0.0316 µM
[2] = second compound 0.000949 µM, first compound 0.1 µM
[3] = second compound 0.000949 µM, first compound 0.316 µM
[4] = second compound 0.000949 µM, first compound 1 µM
[5] = second compound 0.003 µM, first compound 0.0316 µM
[6] = second compound 0.003 µM, first compound 0.1 µM
[7] = second compound 0.003 µM, first compound 0.316 µM
[8] = second compound 0.003 µM, first compound 1 µM
[9] = second compound 0.00949 µM, first compound 0.0316 µM
[10] = second compound 0.00949 µM, first compound 0.1 µM
[11] = second compound 0.00949 µM, first compound 0.316 µM
[12] = second compound 0.00949 µM, first compound 1 µM
[13] = second compound 0.03 µM, first compound 0.0316 µM
[14] = second compound 0.03 µM, first compound 0.1 µM
[15] = second compound 0.03 µM, first compound 0.316 µM
[16] = second compound 0.03 µM, first compound 1 µM
[17] = second compound 0.0949 µM, first compound 0.0316 µM
[18] = second compound 0.0949 µM, first compound 0.1 µM
[19] = second compound 0.0949 µM, first compound 0.316 µM
[20] = second compound 0.0949 µM, first compound 1 µM
[21] = second compound 0.3 µM, first compound 0.0316 µM
[22] = second compound 0.3 µM, first compound 0.1 µM
[23] = second compound 0.3 µM, first compound 0.316 µM
[24] = second compound 0.3 µM, first compound 1 µM
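Also: spheroids exposed to compound for seven days before viability readout.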

Question: How did the IC50 (second compound 0.000949 µM) turn out when `CCC(CC)c1cc(NC2CCC(N)C2)n2nccc2n1` (centres undefined) + CCn1c(-c2cccnc2C(C)OC)c2c3cc(ccc31)N1CCOC(CC(NC(=O)C(C(C)C)N(C)C(=O)C3(F)CCN(C(=O)C#CC(C)(C)N(C)C)CC3)C(=O)N3CCCC(N3)C(=O)OCC(C)(C)C2)C1 was run?
Answer: Its IC50 is 840 nM.

Question: What about the IC50 (second compound 0.003 µM) of the same compound?
Answer: Its IC50 is 1320 nM.

Question: And the IC50 (second compound 0.00949 µM)?
Answer: The IC50 was 793 nM.

Question: What about the IC50 (second compound 0.03 µM) of the same compound?
Answer: Its IC50 is 795 nM.

Question: And the IC50 (second compound 0.0949 µM)?
Answer: Its IC50 is 1060 nM.

Question: And the IC50 (second compound 0.3 µM)?
Answer: Its IC50 is 629 nM.

Question: What about the viability, T/C [1] of the same compound?
Answer: The viability, T/C was 105%.

Question: And the viability, T/C [2]?
Answer: Its viability, T/C is 105%.

Question: And the viability, T/C [3]?
Answer: The viability, T/C was 87.2%.

Question: What about the viability, T/C [4] of the same compound?
Answer: Its viability, T/C is 45.2%.

Question: And the viability, T/C (second compound 0.000949 µM, first compound 3.16 µM)?
Answer: The viability, T/C was 2.1%.

Question: And the viability, T/C (second compound 0.000949 µM, first compound 10 µM)?
Answer: The viability, T/C was 2.24%.

Question: What about the viability, T/C [5] of the same compound?
Answer: The viability, T/C was 101%.

Question: What about the viability, T/C [6] of the same compound?
Answer: Its viability, T/C is 94.5%.

Question: What about the viability, T/C [7] of the same compound?
Answer: The viability, T/C was 72.7%.

Question: And the viability, T/C [8]?
Answer: The viability, T/C was 66.2%.

Question: What about the viability, T/C (second compound 0.003 µM, first compound 3.16 µM) of the same compound?
Answer: Its viability, T/C is 2.87%.

Question: And the viability, T/C (second compound 0.003 µM, first compound 10 µM)?
Answer: Its viability, T/C is 1.93%.

Question: What about the viability, T/C [9] of the same compound?
Answer: Its viability, T/C is 123%.

Question: And the viability, T/C [10]?
Answer: Its viability, T/C is 105%.

Question: What about the viability, T/C [11] of the same compound?
Answer: The viability, T/C was 86%.

Question: What about the viability, T/C [12] of the same compound?
Answer: Its viability, T/C is 44.8%.

Question: What about the viability, T/C (second compound 0.00949 µM, first compound 3.16 µM) of the same compound?
Answer: Its viability, T/C is 2.14%.

Question: What about the viability, T/C (second compound 0.00949 µM, first compound 10 µM) of the same compound?
Answer: The viability, T/C was 2.37%.

Question: What about the viability, T/C [13] of the same compound?
Answer: The viability, T/C was 106%.

Question: And the viability, T/C [14]?
Answer: Its viability, T/C is 85.5%.

Question: What about the viability, T/C [15] of the same compound?
Answer: Its viability, T/C is 97.8%.

Question: And the viability, T/C [16]?
Answer: The viability, T/C was 38.5%.

Question: What about the viability, T/C (second compound 0.03 µM, first compound 3.16 µM) of the same compound?
Answer: The viability, T/C was 2.21%.

Question: And the viability, T/C (second compound 0.03 µM, first compound 10 µM)?
Answer: Its viability, T/C is 2.43%.

Question: What about the viability, T/C [17] of the same compound?
Answer: The viability, T/C was 95.2%.

Question: What about the viability, T/C [18] of the same compound?
Answer: The viability, T/C was 78.8%.

Question: And the viability, T/C [19]?
Answer: The viability, T/C was 91.1%.

Question: And the viability, T/C [20]?
Answer: The viability, T/C was 52.4%.

Question: And the viability, T/C (second compound 0.0949 µM, first compound 3.16 µM)?
Answer: The viability, T/C was 2.89%.

Question: And the viability, T/C (second compound 0.0949 µM, first compound 10 µM)?
Answer: The viability, T/C was 2.25%.

Question: And the viability, T/C [21]?
Answer: Its viability, T/C is 80%.

Question: What about the viability, T/C [22] of the same compound?
Answer: The viability, T/C was 68.8%.

Question: And the viability, T/C [23]?
Answer: Its viability, T/C is 81.8%.

Question: And the viability, T/C [24]?
Answer: Its viability, T/C is 31.9%.

Question: And the viability, T/C (second compound 0.3 µM, first compound 3.16 µM)?
Answer: The viability, T/C was 2.89%.

Question: What about the viability, T/C (second compound 0.3 µM, first compound 10 µM) of the same compound?
Answer: The viability, T/C was 3.28%.

Question: How did the IC50 (second compound 0.000949 µM) turn out when `CCN1CCN(Cc2ccc(Nc3ncc(F)c(-c4cc(F)c5nc(C)n(C(C)C)c5c4)n3)nc2)CC1` + CCn1c(-c2cccnc2C(C)OC)c2c3cc(ccc31)N1CCOC(CC(NC(=O)C(C(C)C)N(C)C(=O)C3(F)CCN(C(=O)C#CC(C)(C)N(C)C)CC3)C(=O)N3CCCC(N3)C(=O)OCC(C)(C)C2)C1 was run?
Answer: Its IC50 is 12 nM.

Question: And the IC50 (second compound 0.003 µM)?
Answer: Its IC50 is 14.7 nM.

Question: And the IC50 (second compound 0.00949 µM)?
Answer: The IC50 was 13.6 nM.

Question: What about the IC50 (second compound 0.03 µM) of the same compound?
Answer: Its IC50 is 8.64 nM.

Question: And the IC50 (second compound 0.0949 µM)?
Answer: Its IC50 is 9.8 nM.

Question: And the IC50 (second compound 0.3 µM)?
Answer: Its IC50 is 7.33 nM.

Question: What about the viability, T/C (second compound 0.000949 µM, first compound 0.00316 µM) of the same compound?
Answer: The viability, T/C was 80.1%.

Question: What about the viability, T/C (second compound 0.000949 µM, first compound 0.01 µM) of the same compound?
Answer: Its viability, T/C is 54.1%.

Question: What about the viability, T/C [1] of the same compound?
Answer: The viability, T/C was 30.6%.

Question: What about the viability, T/C [2] of the same compound?
Answer: The viability, T/C was 22.5%.

Question: And the viability, T/C [3]?
Answer: The viability, T/C was 18.7%.

Question: And the viability, T/C [4]?
Answer: The viability, T/C was 13.1%.

Question: What about the viability, T/C (second compound 0.003 µM, first compound 0.00316 µM) of the same compound?
Answer: Its viability, T/C is 85.5%.

Question: And the viability, T/C (second compound 0.003 µM, first compound 0.01 µM)?
Answer: The viability, T/C was 61%.

Question: What about the viability, T/C [5] of the same compound?
Answer: The viability, T/C was 28%.

Question: What about the viability, T/C [6] of the same compound?
Answer: The viability, T/C was 20.3%.

Question: And the viability, T/C [7]?
Answer: The viability, T/C was 16.8%.

Question: What about the viability, T/C [8] of the same compound?
Answer: The viability, T/C was 13.4%.

Question: What about the viability, T/C (second compound 0.00949 µM, first compound 0.00316 µM) of the same compound?
Answer: The viability, T/C was 96%.

Question: What about the viability, T/C (second compound 0.00949 µM, first compound 0.01 µM) of the same compound?
Answer: Its viability, T/C is 52.2%.

Question: And the viability, T/C [9]?
Answer: Its viability, T/C is 39.1%.

Question: And the viability, T/C [10]?
Answer: The viability, T/C was 22.3%.

Question: What about the viability, T/C [11] of the same compound?
Answer: The viability, T/C was 16.1%.

Question: What about the viability, T/C [12] of the same compound?
Answer: The viability, T/C was 14.7%.

Question: What about the viability, T/C (second compound 0.03 µM, first compound 0.00316 µM) of the same compound?
Answer: Its viability, T/C is 80.5%.

Question: What about the viability, T/C (second compound 0.03 µM, first compound 0.01 µM) of the same compound?
Answer: Its viability, T/C is 44.6%.

Question: What about the viability, T/C [13] of the same compound?
Answer: The viability, T/C was 29%.

Question: And the viability, T/C [14]?
Answer: Its viability, T/C is 21.5%.

Question: And the viability, T/C [15]?
Answer: The viability, T/C was 15.9%.

Question: And the viability, T/C [16]?
Answer: The viability, T/C was 14.4%.

Question: And the viability, T/C (second compound 0.0949 µM, first compound 0.00316 µM)?
Answer: Its viability, T/C is 73.4%.

Question: What about the viability, T/C (second compound 0.0949 µM, first compound 0.01 µM) of the same compound?
Answer: The viability, T/C was 48.7%.

Question: What about the viability, T/C [17] of the same compound?
Answer: Its viability, T/C is 34.5%.

Question: And the viability, T/C [18]?
Answer: The viability, T/C was 16.6%.

Question: And the viability, T/C [19]?
Answer: The viability, T/C was 20.6%.

Question: What about the viability, T/C [20] of the same compound?
Answer: The viability, T/C was 12.5%.

Question: What about the viability, T/C (second compound 0.3 µM, first compound 0.00316 µM) of the same compound?
Answer: Its viability, T/C is 61.5%.

Question: What about the viability, T/C (second compound 0.3 µM, first compound 0.01 µM) of the same compound?
Answer: The viability, T/C was 45.5%.

Question: What about the viability, T/C [21] of the same compound?
Answer: The viability, T/C was 33.2%.

Question: What about the viability, T/C [22] of the same compound?
Answer: The viability, T/C was 21.4%.

Question: And the viability, T/C [23]?
Answer: The viability, T/C was 19%.

Question: And the viability, T/C [24]?
Answer: Its viability, T/C is 13.5%.
